“Also recorded” adds a separate entry of the source. Where a name gives a salt, the structure may show the parent alone.
How the values were obtained:
HBV [1] = conditions: 30 mg daily dose, over 12 weeks, phase II studies; cited from earlier work
HBV [2] = assay: Response of Patient E (chronic HBV infection) to treatment; assay type: in vivo, Hepatitis B virus; conditions: previously treated with lamivudine
Excerpt: Reference herein to “decreased” or “reduced” in relation to sensitivity to ADV and/or LMV and/or FTC and/or TFV includes and encompasses a complete or substantial resistance to the nucleoside or nucleotide analog or other anti-HBV agents as well as partial resistance and includes a replication rate or replication efficiency which is more than a wild-type in the presence of a nucleoside or nucleotide analog or other anti-HBV agents. In one aspects this is conveniently measured by an increase in viral load during treatment, or alternatively, there is no substantial decrease in HBV DNA viral load from pretreatment HBV DNA levels during treatment (i.e., non-response to treatment).

HBV [3] = assay: HBV viral load in Patient A during ADV therapy; assay type: in vivo, Hepatitis B virus; conditions: Patient A on ADV treatment
Excerpt: Patient A: During ADV treatment, unique HBV mutations were detected by sequencing (Table 4). This includes the unique mutation at rtT38K, and rtA181V. A number of other changes were also detected in the polymerase rtR55H and in the overlapping envelope gene (Table 4, FIGS. 4, 5 and 6). The changes in the HBsAg include sQ30K, sE44G, sA47T, sI126T, sA159V and sL173F. These unique changes were compared to reference sequences from each of the seven genotypes A-G as well as a consensus sequence from pretreatment samples to determine unique changes
Hepatitis B surface antigen (HBsAg), hepatitis B e antigen (HBeAg), anti-HBe and hepatitis B core antigen (HBcAg) specific IgG and IgM were measured using commercially available immunoassays (Abbott Laboratories, North Chicago, Ill., USA). Hepatitis B viral DNA levels were measured using a capture hybridization assay according to the manufacturer's directions (Digene Hybrid Capture II, Digene Diagnostics Inc., Beltsville, Md.). The manufacturers stated cut-off for detecting HBV viremia in clinical specimens was 0.7×10^6 copies/ml or 2.5 pg/ml, [Hendricks et al., Am J Clin Pathol 104: 537-46, 1995]. HBV DNA levels can also be quantitated using other commercial kits such as Cobas amplification HBV monitor kit (Roche).

Row | Structure (SMILES) | mean decrease in viremia (HBV [1]) [log10] | response to treatment (HBV [2]) | HBV viral load (HBV [3]; 8 Jul. 2003) | HBV viral load (HBV [3]; 14 Jan. 2003) | HBV viral load (HBV [3]; 22 Oct. 2002)
1 | CC(C)(C)C(=O)OCOP(=O)(COCCn1cnc2c(N)ncnc21)OCOC(=O)C(C)(C)C [ADV, adefovir dipivoxil] | 4 | did not respond; also recorded: nonresponder | 7.92E+07 | 1.21E+09 | 8.77E+06
2 | CC(C)OC(=O)OCOP(=O)(CO[C@H](C)Cn1cnc2c(N)ncnc21)OCOC(=O)OC(C)C [TFV, tenofovir disoproxil fumarate] | – | responded | – | – | –

— patent US8008000B2, “Viral variants detection and application” (priority 2003, dated 2011)
